In data set [1] the test system is relapsed/refractory central nervous system lymphoma. The note with it: cited from earlier work; for ORR / PFS: patients.
The test system of data set [2] is TMD8 mouse subcutaneous xenograft tumor. As to the kind of experiment: TMD8 pharmacodynamic model test (mouse subcutaneous xenograft tumor). The settings on record: for inhibitory effect against the tumor compared with ARQ-531 and ibrutinib: same dose of 10 mg/kg, FIG. 1. It is filed as in vivo. As for the experimental part: Test Example 7: TMD8 Pharmacodynamic Model Test
Human diffuse large B-cell lymphoma TMD8 cells were monolayer-cultured in vitro in RPMI1640 medium with 10% fetal bovine serum, 100 U/mL penicillin and 100 µg/mL streptomycin, in a 37° C., 5% CO2 incubator. Routine digestion with trypsin-EDTA was performed twice a week for passaging. When the cell density was 80%-90% and the number reached the requirement, cells were harvested, counted and inoculated. 0.2 ml (1×10^7 cells) of TMD8 cells (added with matrigel at a volume ratio of 1:1) were subcutaneously inoculated on the right back of each mouse. The mice were administered in groups when the average tumor volume reached about 137 mm^3. Tumor diameters were measured twice a week with vernier calipers. The tumor volume was calculated by the formula V = 0.5 a × b^2, where a and b represent the long and short diameters of the tumor, respectively.

Data set [3] addresses BTK wild-type kinase (Homo sapiens (Human), UniProt Q06187). As to the kind of experiment: BTK kinase activity inhibition test in vitro (Caliper EZ Reader). The data set is classed as biochemical. The procedure, abridged:
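Compound (10 mM DMSO stock) preincubated with kinase 10 min at room temperature, then ATP plus kinase substrate 2 added, 10 min reaction at room temperature before stop. Substrate conversion read by Caliper mobility shift; inhibition normalised to no-enzyme and no-compound controls, IC50 by variable-slope log(inhibitor) fit.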

The nature of data set [4]: Liver microsome metabolic stability test, rat. The note with it: for half-life: liver microsomes, 0.5 mg/mL protein, read-out: T½. It is filed as in vitro ADME. As for the experimental part: (§1) 1: To the sample wells of T0, T5, T10, T20, T30, T60 and NCF60, 10 µL of the test or reference working solution and 80 µL of microsome working solution (hepatic microsome with a protein concentration of 0.5 mg/mL) were added, and to Blank60 well, only the microsome working solution was added. Then samples of the Blank60, T5, T10, T20, T30 and T60 other than T0 and NCF60 were placed in a 37° C. water bath and pre-incubated for about 10 min.
(§2) 2: To the T0 sample well, 300 µL of stop solution (containing 200 ng/mL tolbutamide and 200 ng/mL labetalol in acetonitrile solution) was added first, followed by 10 µL of NADPH regeneration system working solution.
(§3) 3: After the pre-incubation of Blank60, T5, T10, T20, T30 and T60 incubation plates, 10 µL of NADPH regeneration system working solution was added to each sample well to start the reaction, and 10 µL of 100 mM potassium phosphate buffer was added to the NCF60 sample well.
(§4) 4: After incubation for an appropriate time (such as 5, 10, 20, 30 and 60 min), to each test sample well and control well of the Blank60, T5, T10, T20, T30, T60 and NCF60 plates, 300 µL of stop solution was added to terminate the reaction.
(§5) 5: All sample plates were shaken to mix well and centrifuged at 4000 rpm for 20 min, and 100 µL of the supernatant of the test sample or control sample was taken and diluted with 300 µL of pure water for LC-MS/MS analysis.
(§6) 6: Data analysis: T½ and CLint(mic) (µL/min/mg) values were calculated according to the first-order elimination kinetics. The first-order elimination kinetics equation was: […]
Background: Microsomes from liver hold many membrane-bound enzymes, among them those of drug oxidation.

Data set [5] is described as follows: Pharmacokinetic test, oral, SD rats. It is filed as in vivo. The note with it: oral 10 mg/kg, plasma; for AUC(0-inf) / Cmax / half-life: rat; for Cmax: read-out: Cmax; for half-life: read-out: T½ (converted). The method, then:
Each test compound was administered orally (10 mg/kg, 3 rats in each group) to SD rats for pharmacokinetic study. […] Animals were fasted overnight before oral administration, and fed again after 4 h of administration. […] At each collection time point, 3 whole blood samples were collected at a the collection volume of about 0.2-0.3 mL. […] The collected plasma was stored at -20° C. before analysis. 20 µL of plasma sample was added into a 1.6 mL 96-well deep-well plate, added with 200 µL of working internal standard solution (the same volume of vehicle was added to the blank instead of internal standard), vortexed for 1 min, and centrifuged at 5800 rpm for 10 min. 100 µL of the supernatant was added to a 96-well injection plate for LC-MS/MS analysis.

In data set [6] the target is BTK mutation-type C481S kinase (Homo sapiens (Human), UniProt Q06187, C481S). In words: BTK-C481S kinase activity inhibition test in vitro (Caliper EZ Reader). The data set is classed as biochemical. As for the experimental part: In the tests on the activity of inhibiting BTK and HER2 kinase in vitro in the examples of the present disclosure, powder of the compound was dissolved in 100% DMSO to prepare a 10 mM stock solution and stored at-20° C. in the dark. […] In addition, the compounds were subjected to experiments such as liver microsome metabolic stability, rat PK, rat brain penetration rate, and drug efficacy model in the examples of the present disclosure.
Sequence of BTK mutation-type C481S kinase (Q06187 whole entry C481S): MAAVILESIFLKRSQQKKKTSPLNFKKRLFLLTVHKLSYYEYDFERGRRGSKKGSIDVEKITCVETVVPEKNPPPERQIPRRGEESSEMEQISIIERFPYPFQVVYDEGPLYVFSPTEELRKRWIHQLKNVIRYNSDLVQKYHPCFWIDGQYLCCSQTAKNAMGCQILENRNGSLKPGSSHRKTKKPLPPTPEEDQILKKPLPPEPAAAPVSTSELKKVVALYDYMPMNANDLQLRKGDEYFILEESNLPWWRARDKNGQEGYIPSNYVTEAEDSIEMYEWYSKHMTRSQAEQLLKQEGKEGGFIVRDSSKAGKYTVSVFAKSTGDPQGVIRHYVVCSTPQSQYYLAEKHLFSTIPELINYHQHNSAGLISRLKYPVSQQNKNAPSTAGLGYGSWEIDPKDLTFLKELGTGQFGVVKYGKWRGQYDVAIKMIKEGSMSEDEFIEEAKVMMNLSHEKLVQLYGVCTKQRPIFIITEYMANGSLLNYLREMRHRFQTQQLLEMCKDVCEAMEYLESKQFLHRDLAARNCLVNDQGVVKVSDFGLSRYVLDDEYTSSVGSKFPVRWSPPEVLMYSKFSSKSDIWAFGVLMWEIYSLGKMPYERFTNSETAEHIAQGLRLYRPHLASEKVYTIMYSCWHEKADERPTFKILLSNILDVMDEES
Compound powders were dissolved in 100% DMSO to make 10 mM stock solutions, which were stored at -20° C. in the dark.
2: Kinase Reaction Process
(1) Preparation of 1 × Kinase buffer.
(5) After centrifugation at 1000 rpm for 30 seconds, the reaction plate was shaken to mix well and incubated at room temperature for 10 min.
(6) A 5/3-fold final concentration of a mixed solution of ATP and Kinase substrate 2 was prepared with 1 × Kinase buffer.
(7) 15 µL of the mixed solution of ATP and substrate with 5/3-fold final concentration was added to start the reaction.
(8) The 384-well plate was centrifuged at 1000 rpm for 30 seconds, shaken to mix well, and incubated at room temperature for 10 min.
(9) 30 µL of a stop solution was added to stop the kinase reaction, and after centrifugation at 1000 rpm for 30 seconds, the plate was shaken to mix well;
(10) The conversion rate was read with Caliper EZ Reader.
where Conversion%_sample indicates the conversion rate reading of the sample; Conversion%_min is the average reading of the negative control wells, representing the conversion rate reading of the wells without enzyme activity; Conversion%_max is the average reading of the ratio of the positive control wells, representing the conversion rate reading of the wells without compound inhibition.
Dose-Response Curve Fitting
With the log value of the concentration as the X-axis, and the percentage inhibition rate as the Y-axis, the dose-effect curve was fitted using the log(inhibitor) vs. response-Variable slope of the analysis software GraphPad Prism 5, so as to determine the IC50 value of each compound on the enzyme activity.
The calculation formula was: […]

A short description of data set [7]: Liver microsome metabolic stability test, human. The data set is classed as in vitro ADME. The note with it: for half-life: liver microsomes, 0.5 mg/mL protein, read-out: T½. As for the experimental part:
as §1, §2, §3, §4, §5, §6

Data set [8] concerns DOHH-2-luc tumor cells in the mouse brain. As to the kind of experiment: DOHH-2-Luc intracerebral tumor drug efficacy model test. It is filed as in vivo. The settings on record: for tumor size in the brain by fluorescence image: DOHH-2-Luc intracerebral model, same dose, FIG. 4. The method, then: Test Example 8: DOHH-2-Luc Intracerebral Tumor Drug Efficacy Model Test
DOHH-2-luc tumor cells were cultured in vitro with RPMI 1640 medium containing 10% fetal bovine serum and 500 ng/mL puromycin in a 37° C., 5% CO2 incubator. […] Tumor cells in logarithmic growth phase were used for inoculation of tumors in vivo.
2. Inoculation of Tumor Cell and Grouping
After the animal was anesthetized by intramuscular injection of Zoletil, it was fixed on the operating table in a prone position. The skin on the top of the head was disinfected with iodine and 75% alcohol respectively, and the skin was cut about 0.5 cm along the midline of the head to expose the coronal and sagittal lines. Being located about 0.5-1.0 mm above the coronal line and about 2 mm to the right of the sagittal line by using a brain locator, a hole was drilled with a 1 mL syringe needle. The micro-injector was inserted vertically to a depth of 3 mm at the location, slowly (about 1 min) injected with 3 × 10^5 DOHH-2-luc tumor cells /2 µL suspension and kept for 1 min. After pulling out the needle, the needle hole was quickly sealed with bone wax, and the wound was sutured with a stapler. About the 7th day after tumor inoculation, the animals were randomly divided into 5 groups according to the body weight of the animals and the optical signal intensity of the tumor site, with 5 animals in each group.
The mice were imaged 1-2 times a week according to their state using the small animal in vivo imaging system IVIS Lumina III (Perkin Elmer). The bioluminescence imaging (BLI, unit: photons/s) signal intensity at the tumor cell inoculation site of mouse was monitored as the main indicator for evaluating tumor growth and drug efficacy. The specific operation is as follows:
The mice were intraperitoneally injected with D-luciferin (15 mg/mL, 5 µL/g according to the body weight of the experimental animal), and then inhaled anesthetized with 1%-2% isoflurane. 10 min after the injection of D-luciferin, the animals were imaged with IVIS Lumina III. The data were analyzed and processed using Living Image software (Perkin Elmer), and the optical signal intensity in ROI (regions of interest) of each animal was calculated.

In general, IC50 refers to the point on the concentration scale where inhibition reaches its midpoint. A high value points to a need for much substance. As a reminder, the AUC(0-inf) is total exposure, with the tail of the curve extrapolated. Lower therefore signals less exposure. As usually defined, the Cmax is the highest concentration seen after dosing.

The structures appear in SMILES notation. Counter-ions that a name gives are not always drawn. Like-named read-outs stand apart in the source and are kept apart here.

Sequence of BTK wild-type kinase (Q06187 whole entry): as the sequence (Q06187 whole entry C481S) above, with S481C counted along it

For `CC#CC(=O)N1CC[C@@H](n2c(=O)n(-c3ccc(Oc4ccccc4)cc3)c3c(N)ncnc32)C1` [Velexbru, Tirabrutinib hydrochloride], in data set [1] (relapsed or refractory PCNSL patients), the “patients who achieved effective remission” value was 52.9%.
In the case of `Nc1nccn2c(C34CCC(CO)(CC3)OC4)nc(-c3ccc(C(F)(F)c4ccccc4)cc3)c12` [Compound 125], the “inhibitory effect against the tumor compared with Tirabrutinib” value in data set [2] (same dose of 20 mg/kg, FIG. 2) is reported as “significantly better inhibitory effect against the tumor”; in data set [8] (DOHH2 tumor model in the mouse brain, same dose of 30 mg/kg (BID), FIG. 3), “significantly better inhibitory effect against the tumor”. The IC50 in data set [3] is 5 to 20 nM; in data set [6], less than 5 nM. Besides, the “%Remaining (60 min)” value in data set [4] is on record as 49%; in data set [7], 61.2%. For the same molecule, the half-life is 1.06 h in data set [4], 4.19 h in data set [5] and 1.58 h in data set [7]. Also, the “Cl” value in data set [5] was determined as 1.045 L/h/kg. Moreover, the total exposure AUC(0-inf) in data set [5] turned out to be 8.87 µg·h/mL. Further, in data set [5], the Cmax is 1.18 µg/mL. Further, the “tumor size in the brain by fluorescence image” value in data set [8] was “very good inhibitory effect against the tumor”. Besides, the side effects entry in data set [8] (mouse, 30 mg/kg (BID), after 21 days of administration) is “no side effects”.
As for `CC#CC(=O)N1CC[C@@H](n2c(=O)n(-c3ccc(Oc4ccccc4)cc3)c3c(N)ncnc32)C1` [Tirabrutinib, reference compound], in data set [4], the “%Remaining (60 min)” value was found to be 37.0% and the half-life is 0.702 h. Also, in data set [5], the “Cl” value was 11.395 L/h/kg, the AUC(0-inf) worked out at 0.965 µg·h/mL, the Cmax is 0.92 µg/mL and the half-life is 0.33 h. In addition, in data set [1] (320 mg QD), the ORR was 60% and the PFS is 2.1 months. Further, in data set [1] (480 mg QD (fasting condition)), the ORR is given as 52.9% and the PFS is listed as 5.8 months. For the same molecule, in data set [1] (480 mg QD), the ORR is recorded as 100% and the PFS was 11.1 months. In addition, in data set [7], the “%Remaining (60 min)” value worked out at 66.3% and the half-life is 1.77 h. Further, the “tumor size in the brain by fluorescence image” value in data set [8] is given as “large red areas”.
Consider `COc1cccc(Oc2ccc(-c3nc(C4CCC(CO)OC4)n4ccnc(N)c34)cc2)c1C#N` (single isomer, unassigned) [Compound 89-P1], for which the “inhibitory effect against the tumor compared with ARQ-531 and ibrutinib” value in data set [2] is listed as “significantly better inhibitory effect against the tumor”. This molecule also returned an IC50 in data set [3] of less than 5 nM. Besides, in data set [4], the “%Remaining (60 min)” value came out at 61.0% and the half-life worked out at 1.47 h. In data set [5], the “Cl” value came out at 1.232 L/h/kg, the AUC(0-inf) came out at 8.12 µg·h/mL, the Cmax is 2.98 µg/mL and the half-life is 1.16 h. In addition, in data set [6], the IC50 is less than 5 nM. Further, in data set [7], the “%Remaining (60 min)” value is listed as 100.4% and the half-life is greater than 2.42 h.
In the case of `Nc1nccn2c(C34CCC(CO)(CC3)OC4)nc(-c3ccc(C(=O)Nc4cc(C(F)(F)F)ccn4)cc3)c12` [Compound 118], the “inhibitory effect against the tumor compared with ARQ-531 and ibrutinib” value in data set [2] is listed as “significantly better inhibitory effect against the tumor”. In data set [3], this molecule had an IC50 of less than 5 nM. In data set [4], the “%Remaining (60 min)” value was found to be 64.1% and the half-life is 1.69 h. For the same molecule, in data set [5], the “Cl” value was 0.048 L/h/kg, the AUC(0-inf) was 211 µg·h/mL, the Cmax was determined as 25.7 µg/mL and the half-life is 3.35 h. Further, the IC50 in data set [6] is less than 5 nM. Further, in data set [7], the “%Remaining (60 min)” value is on record as 77.4% and the half-life was greater than 2.42 h.
